# In US20170071918A1 (THE UNIVERSITY OF HONG KONG, priority 2015, published 2017):
# Several values for one entry are separate records, joined by “and”; a condition that tells them apart may be missing. Equal entries are not always repeated.
# Columns and labels:
# [1] = system: Bel-7402 cells (mock-treated and sorafenib-resistant); assay: Annexin V staining apoptosis assay, Bel-7402; assay type: cell-based, human
# Method: (§1) Cells were stained in binding buffer, proipidium iodide (PI) and FITC-conjugated Annexin V as provided by the Annexin-V-FLUO+S Staining Kit (Roche Diagnostics) according to manufacturer's instructions. Analysis was determined using a Canto II flow cytometer and FACSdiva software (BD Biosciences).
# [2] = system: Huh-7 cells (mock-treated and sorafenib-resistant); assay: Annexin V staining apoptosis assay, Huh-7; assay type: cell-based, human
# Method: as §1
# [3] = system: NF-κB binding to the CD47 promoter; assay: ChIP-qPCR assay of NF-κB occupancy on the CD47 promoter; assay type: cell-based, human
# Method: The cells were processed for ChIP assays according to Upstate CHIP protocol. Briefly, cells were cross-linked for 10 min with 1% formaldehyde and lysed. Lysate pellets were resuspended and sonicated with a Microson sonifier XL-2000 (Misonix) for 10 cycles (ON/OFF 30 seconds; amplitude 10 microns). Protein-DNA complexes were immunoprecipitated using p65 (C-20) antibody (Santa Cruz Technology, Santa Cruz, Calif.) or Normal rabbit IgG (Thermo Fisher Scientific, Rockford, Ill.) bound to protein A agarose, eluted, and digested with proteinase K. For qPCR analysis of the ChIP DNA samples before amplicon generation, QIAquick-purified immunoprecipitates were dissolved in 30 μl of water. Standard PCR reactions using […] of the immunoprecipitated DNA were performed with a SYBR Green PCR kit (Applied Biosystems) using primers which generates a PCR amplicon flanking −564 and -1740 base pairs upstream of the NM 001777 (CD47) transcription start site based on bioinformatics analysis on the Human Genome Build from the UCSC Genome Browser February 2009 (GRCh37/hg19) Assembly. Calculation of NF-κB occupancy on the CD47 promoter was performed according to the ChIP-qPCR primer assay data analysis template from Superarray Bioscience (Frederick, Md.).
# [4] = system: NF-κB (nuclear p65 (Ser536), cytosolic p-IκBα (Ser32/36)); assay: Western blotting of NF-κB activation; assay type: cell-based, human
# Method: upon lysis with Buffer A (0.5 mM DTT, 10 mM HEPES, 10 mM KCl 1.5 mM MgCl2, pH7.9) for 15 minutes on ice and 0.5% NP-40 was added before extraction by centrifugation. The remaining pellet was treated with RIPA buffer (50 mM Tris-HCl pH7.4, 1% NP-40, 0.05% SDS 150 mM NaCl, 1 mM EDTA) for 30 minutes on ice and the nuclear fraction was obtained by centrifugation.
# Western blots were developed using an ECL Plus kit (Amersham Biosciences, Piscataway, N.J.). The primary antibodies included mouse anti-human p65 (Ser536), mouse anti-human p-Akt (Ser473), anti-human p-Erk (Thr202/Tyr204), rabbit anti-human Bcl-2, rabbit anti-human cleaved caspase-9, rabbit anti-human cleaved PARP, mouse anti-human p-IκBα (Ser32/36) (Cell Signal Technology) and mouse anti-human α-tubulin, rabbit anti-human Bax, rabbit anti-human SP1 (PEP2) (Santa Cruz Technology, Santa Cruz, Calif.). After washing, the membrane was incubated with horseradish peroxidase-conjugated anti-mouse or rabbit antibody (Amersham) and then visualized with enhanced chemiluminescence plus according to the manufacturer's protocol.
# CD47 expression = assay: Flow cytometric analysis of cell-surface CD47; assay type: cell-based, human
# Method: Phycoerythrin (PE)-conjugated CD47 (BD PharMingen, San Jose, Calif.), APC-conjugated CD133 (MACS Miltenyi Biotec), FITC-conjugated CD24 (MACS Miltenyi Biotec), FITC-conjugated EPCAM (Becton Dickinson), were incubated in phosphate-buffered saline (PBS) containing 2% fetal bovine serum (FBS) for 30 minutes at 4° C. Isotype-matched mouse immunoglobulins served as controls. The samples were analyzed using a Canto II flow cytometer and FACSdiva software (BD Biosciences, San Jose, Calif.).
# NF-κB promoter activity = assay: Luciferase reporter assay, NF-κB promoter; assay type: cell-based, human
# Method: (§2) NF-κB promoter plasmid pNF-κB-Luc or CD47 luciferase promoter plasmid were transfected together with pRL-cytomegalovirus as normalization using Lipofectamine 2000 (Thermo Fisher Scientific). Cell were incubated for 48 hours prior to detection by Dual-Luciferase Reporter Assay System Kit (Promega) according to manufacterer's protocol. Gaussia Luciferase Assay Kit (GeneCopoeia) was used for CD47 detection. Samples were detected with Infinite F200 Tecan Multiplate reader (Tecan Austria GmbH).
# CD47 promoter activity = assay: Luciferase reporter assay, CD47 promoter; assay type: cell-based, human
# Method: as §2
# MHCC97L cells = assay: Annexin V staining apoptosis assay, MHCC97L; assay type: cell-based, human; settings: sorafenib 10 μM; MHCC97L shCD47 vs control
# Method: as §1
# [5] = system: mock-treated and sorafenib-resistant HCC cells (Bel-7402 and Huh-7); assay: XTT cell proliferation assay; assay type: cell-based, human; settings: sorafenib 5 to 25 μM, 48 h; mock-treated vs sorafenib-resistant cells
# Method: After 48 h, (2,3-Bis-(2-Methoxy-4-Nitro-5-Sulfophenyl)-2H-Tetrazolium-5-Carboxanilide) (XTT) dye, at a concentration of 5 mg/mL (Sigma-Aldrich, St Louis, Mo.), was added and the plates were incubated for 12 h in a moist chamber at 37° C. Optical density was determined by eluting the dye with dimethyl sulfoxide (Sigma-Aldrich) and the absorbance was measured at 570 nm. At least three independent experiments were performed.
# PDTX#5 tumor tissues = assay: TUNEL assay of apoptotic nuclei in PDTX#5 tumors; assay type: in vivo, mice; settings: tumors harvested day 31
# Method: The TUNEL assay was performed to detect apoptotic cells using in situ cell death detection kit (Roche Diagnostics, Indianapolis, Ind.). Briefly, paraffin-embedded tissues were fixed with 15 μg/mL proteinase K in 10 mM Tris/HCl at pH 7.4. The slides were then incubated with the TUNEL reaction mixture for 1 h at 37° C. After washing, the slides were incubated with a horseradish peroxidase-conjugated anti-fluorescein antibody for 30 min at 37° C. Stained slides were imaged on an Aperio Scanscope® CS imager (Vista, Calif.), generating 0.43 μm/pixel whole slide images. These images were compiled, and number of apoptotic nuclei was quantitated using the Aperio Spectrum® software with a pixel count algorithm.
# [6] = system: patient-derived HCC tumor xenografts (PDTX#1 and PDTX#5); assay: Sorafenib treatment of PDTX#1 and PDTX#5 xenografts (in vivo selection); settings: sorafenib 100 mg/kg oral for 31 days; NOD-SCID mice
# Text: Using this in vivo treatment, we enriched the proportion of sorafenib-resistant HCC cells in residual tumors.
# CD47 (human) = CD47 (human) (UniProt Q08722); assay: cell-based or functional assay
# [7] = IMD-0354, Huh-7 and MHCC97L cells
# [8] = TNF-α 20 ng/mL, PLC/PRF/5 and Bel-7402 cells
# [9] = TNF-α for 1 hour, Bel-7402 and PLC/PRF/5 cells
molecule,measurement,setting,value
O=C(Nc1cc(C(F)(F)F)cc(C(F)(F)F)c1)c1cc(Cl)ccc1O [IMD-0354],Toxic effects on cells,"[1]; 0.5 μM IMD-0354, Bel-7402",no toxic effects
same,Sensitization to sorafenib,"[1]; 0.5 μM IMD-0354 cotreatment with sorafenib, Bel-7402",sensitized
same,Annexin V-positive (apoptotic) cells,"[1]; sorafenib plus IMD-0354 at 0.5 μM, mock-treated Bel-7402",30.8%
same,Annexin V-positive (apoptotic) cells,"[1]; sorafenib plus IMD-0354 at 0.5 μM, sorafenib-resistant Bel-7402",32.9%
same,Toxic effects on cells,"[2]; 0.05 μM IMD-0354, Huh-7",no toxic effects
same,Sensitization to sorafenib,"[2]; 0.05 μM IMD-0354 cotreatment with sorafenib, Huh-7",sensitized
same,Annexin V-positive (apoptotic) cells,"[2]; sorafenib plus IMD-0354, mock-treated Huh-7",50.2%
same,Annexin V-positive (apoptotic) cells,"[2]; sorafenib plus IMD-0354, sorafenib-resistant Huh-7",33.9%
same,Fold enrichment of NF-κB binding relative to background,"[3]; Huh-7 cells, site 1, 1 μM IMD-0354 for 24 hours (untreated 1.4-fold)",1.1 fold
same,Fold enrichment of NF-κB binding relative to background,"[3]; Huh-7 cells, site 2, 1 μM IMD-0354 for 24 hours (untreated 1.8-fold)",0.9 fold
same,Fold enrichment of NF-κB binding relative to background,"[3]; MHCC97L cells, site 1, 3 μM IMD-0354 for 24 hours (untreated 4.3-fold)",1.4 fold
same,Fold enrichment of NF-κB binding relative to background,"[3]; MHCC97L cells, site 2, 3 μM IMD-0354 for 24 hours (untreated 2.8-fold)",1.5 fold
same,NF-κB activation (phosphorylation of p65 and IκBα),[4]; IMD-0354 at 1 μM in Huh-7 and 3 μM in MHCC97L cells,effectively suppressed NF-κB activation
same,Cell-surface expression of CD47,"CD47 expression; IMD-0354, MHCC97L and Huh-7 cells",reduction in cell-surface expression of CD47
same,NF-κB promoter activity,NF-κB promoter activity; [7],significantly down-regulated
same,CD47 promoter activity,CD47 promoter activity; [7],significantly down-regulated
CNC(=O)c1cc(Oc2ccc(NC(=O)Nc3ccc(Cl)c(C(F)(F)F)c3)cc2)ccn1 [sorafenib],Annexin V-positive (apoptotic) cells,"[1]; sorafenib 15 μM, mock-treated Bel-7402, after CD47 knockdown",38%
same,Annexin V-positive (apoptotic) cells,"[1]; sorafenib 15 μM, mock-treated Bel-7402, before CD47 knockdown (nontarget control)",25.2%
same,Annexin V-positive (apoptotic) cells,"[1]; sorafenib 15 μM, sorafenib-resistant Bel-7402, after CD47 knockdown",37.6%
same,Annexin V-positive (apoptotic) cells,"[1]; sorafenib 15 μM, sorafenib-resistant Bel-7402, before CD47 knockdown (nontarget control)",19.1%
same,Annexin V-positive (apoptotic) cells,"[1]; sorafenib alone, mock-treated Bel-7402",29.0%
same,Annexin V-positive (apoptotic) cells,"[1]; sorafenib alone, sorafenib-resistant Bel-7402",14.9% and 13.2%
same,Sensitivity of cells to sorafenib after CD47 knockdown,"[2]; sorafenib 10 μM, Huh-7 shCD47 vs control",increased the sensitivity of cells to sorafenib
same,Annexin V-positive (apoptotic) cells,"[2]; sorafenib alone, mock-treated Huh-7",37.7% and 43.0%
same,Annexin V-positive (apoptotic) cells,"[2]; sorafenib alone, sorafenib-resistant Huh-7",28.4% and 35.1%
same,Annexin V-positive (apoptotic) cells,"[2]; sorafenib, mock-treated Huh-7, after CD47 knockdown",57.9%
same,Annexin V-positive (apoptotic) cells,"[2]; sorafenib, mock-treated Huh-7, before CD47 knockdown (nontarget control)",48.8%
same,Annexin V-positive (apoptotic) cells,"[2]; sorafenib, sorafenib-resistant Huh-7, after CD47 knockdown",56.9%
same,Annexin V-positive (apoptotic) cells,"[2]; sorafenib, sorafenib-resistant Huh-7, before CD47 knockdown (nontarget control)",38.8%
same,Sensitivity of cells to sorafenib after CD47 knockdown,MHCC97L cells,increased the sensitivity of cells to sorafenib
same,Growth-suppressive effect on cell proliferation,[5],significantly greater in mock-treated cells
same,Percentage of apoptotic nuclei in tumor tissues (TUNEL),PDTX#5 tumor tissues,higher
same,Effect on xenograft tumors,[6],tumor inhibition
TNF-α,Fold enrichment of NF-κB binding relative to background,"[3]; Bel-7402 cells, site 1, 20 ng/mL TNF-α, 1 hour before fixation (untreated 1.5-fold)",2.5 fold
same,Fold enrichment of NF-κB binding relative to background,"[3]; Bel-7402 cells, site 2, 20 ng/mL TNF-α, 1 hour before fixation (untreated 1.6-fold)",2.5 fold
same,NF-κB activation (nuclear p65 (Ser536) and cytosolic p-IκBα (Ser32/36)),[4]; [8],successfully induced NF-κB activation
same,CD47 expression on the surface of HCC cells,CD47 expression; [8],increase in CD47 expression
same,NF-κB promoter activity,NF-κB promoter activity; [9],increase in NF-κB promoter activity
same,CD47 promoter activity,CD47 promoter activity; [9],corresponding increase in CD47 promoter activity
"Monoclonal antibody against CD47 (B6H12) (antibody, from another filing, V domains shown) VH: EVQLVESGGDLVKPGGSLKLSCAASGFTFSGYGMSWVRQTPDKRLEWVATITSGGTYTYYPDSVKGRFTISRDNAKNTLYLQIDSLKSEDTAIYFCARSLAGNAMDYWGQGTSVTVSS VL: DIVMTQSPATLSVTPGDRVSLSCRASQTISDYLHWYQQKSHESPRLLIKFASQSISGIPSRFSGSGSGSDFTLSINSVEPEDVGVYYCQNGHGFPRTFGGGTKLEIK","sorafenib sensitivity, mock-treated Bel-7402 cells, without to with anti-CD47 antibody at 2 µg/mL",CD47 (human),29 to 37.6%
same,"sorafenib sensitivity, mock-treated Huh-7 cells, without to with anti-CD47 antibody at 2 µg/mL",CD47 (human),43 to 48.5%
same,"sorafenib sensitivity, sorafenib-resistant Bel-7402 cells, without to with anti-CD47 antibody at 2 µg/mL",CD47 (human),13.2 to 38.4%
same,"sorafenib sensitivity, sorafenib-resistant Huh-7 cells, without to with anti-CD47 antibody at 2 µg/mL",CD47 (human),35.1 to 39.3%
